# Data published in patent US9573913B2, “Cathepsin cysteine protease inhibitors” (Merck Sharp & Dohme Corp., priority 2013, dated 2017).
# How the values were obtained:
# [1] = target: human cathepsin K (UniProt P43236); test: Cathepsin K Assay (hrbCat K); assay type: biochemical; details: Z-Leu-Arg-AMC substrate, pH 5.5, 15 min preincubation; read-out: hrbCat K (IP (nM))
# Method in brief: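 Human cathepsin K (0.4 nM) was preincubated 15 min at room temperature with compound in 50 mM MES pH 5.5, 2.5 mM EDTA, 2.5 mM DTT and 10% DMSO. Inhibition was fitted to a dose-response model.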
# [2] = target: T1, human cathepsin F (Homo sapiens, UniProt Q9UBX1); test: Cathepsin F assay (hCat F); assay type: biochemical; details: Z-Phe-Arg-AMC substrate, pH 5.5, 15 min preincubation; read-out: hCat F (IP (nM))
# T1 sequence (Q9UBX1 271-484): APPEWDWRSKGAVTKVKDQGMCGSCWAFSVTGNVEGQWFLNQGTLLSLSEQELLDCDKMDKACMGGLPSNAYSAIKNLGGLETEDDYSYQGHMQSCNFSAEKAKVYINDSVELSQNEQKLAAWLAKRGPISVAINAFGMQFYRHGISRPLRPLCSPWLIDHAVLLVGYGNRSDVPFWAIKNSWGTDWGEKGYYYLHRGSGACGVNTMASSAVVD
# Method in brief: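 AMC release from Z-Phe-Arg-AMC, added at 8 μM, was monitored fluorometrically (360/460 nm) for 20 min after 10 nM enzyme and compound had been preincubated 15 min at room temperature. Buffer: MES 50 mM pH 5.5, EDTA and DTT 2.5 mM each, 10% DMSO. Compound DMSO dilutions spanned 500–0.025 μM (3-fold). Dose-response fitting gave % inhibition.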
Compound,IC50 [1],IC50 [2]
"CNC(=O)N1CC(c2ccc(-c3sc(-c4ccc(F)cc4)nc3[C@@H]3CCCC[C@H]3C(=O)NC3(C#N)CC3)cc2)C1 [Example 143, 3-(4-(4-((1R,2R)-2-((1-cyanocyclopropyl)carbamoyl)cyclohex-yl)-2-(4-fluorophenyl)thiazol-5-yl)phenyl)-N-methylazetidine-1-carboxamide]",2 nM,134 nM
"N#CC1(NC(=O)[C@@H]2CCCC[C@H]2c2nc(N3CCO[C@@H](C(F)(F)F)C3)sc2-c2ccc(N3CCS(=O)(=O)CC3)cc2)CC1 [Example 144, (1R,2R)-N-(1-cyanocyclopropyl)-2-(5-(4-(1,1-dioxidothiomorpho-lino)phenyl)-2-((R)-2-(trifluoromethyl)morpholino)thiazol-4-yl)cyclohexane-carboxamide]",3.3 nM,5280 nM
"N#CC1(NC(=O)[C@@H]2CCCC[C@H]2c2nc(N3CCO[C@H](C(F)(F)F)C3)sc2-c2ccc(N3CCS(=O)(=O)CC3)cc2)CC1 [Example 145, (1R,2R)-N-(1-cyanocyclopropyl)-2-(5-(4-(1,1-dioxidothiomorpho-lino)phenyl)-2-((S)-2-(trifluoromethyl)morpholino)thiazol-4-yl)cyclohexane-carboxamide]",4.3 nM,7050 nM
"N#CC1(NC(=O)[C@@H]2CCCC[C@H]2c2nc(-c3ccc(F)cc3)sc2-c2ccc(C3CN(C(=O)NCC(F)(F)F)C3)cc2)CC1 [Example 150, 3-(4-(4-((1R,2R)-2-((1-cyanocyclopropyl)carbamoyl)cyclohex-yl)-2-(4-fluorophenyl)thiazol-5-yl)phenyl)-N-(2,2,2-trifluoroethyl) azetidine-1-carboxamide]",1.6 nM,110 nM
"CC(=O)N1CC(c2ccc(-c3sc(-c4ccc(F)cc4)nc3[C@@H]3CCCC[C@H]3C(=O)NC3(C#N)CC3)cc2)C1 [Example 151, (1R,2R)-2-(5-(4-(1-acetylazetidin-3-yl)phenyl)-2-(4-fluorophenyl)thiazol-4-yl)-N-(1-cyanocyclopropyl) cyclohexanecarbox-amide]",1.3 nM,177 nM
"Cc1nc([C@@H]2CCCC[C@H]2C(=O)NCC#N)c(-c2ccc(N3CCS(=O)(=O)CC3)cc2)o1 [Example 164, (1R,2R)-N-(cyanomethyl)-2-(5-(4-(1,1-dioxidothiomorpho-lino)phenyl)-2-methyloxazol-4-yl)cyclohexane-carboxamide]",13.8 nM,≥ 10000 nM
"N#CC1(NC(=O)[C@@H]2CC(F)(F)CC[C@H]2c2nc(-c3ccc(F)cc3)oc2-c2ccc(N3CCS(=O)(=O)CC3)cc2)CC1 [Example 165, (1R,2R)-N-(1-cyanocyclopropyl)-2-(5-(4-(1,1-dioxidothiomorpho-lino)phenyl)-2-(4-fluorophenyl)oxazol-4-yl)-5,5-difluorocyclohexane-carboxamide]",0.6 nM,61 nM
"CC(C)(C)c1nc([C@@H]2CCC(F)(F)C[C@H]2C(=O)NC2(C#N)CC2)c(-c2ccc(N3CCS(=O)(=O)CC3)cc2)o1 [Example 166, (1R,2R)-2-(2-(tert-butyl)-5-(4-(1,1-dioxidothiomorpho-lino)phenyl)oxazol-4-yl)-N-(1-cyanocyclopropyl)-5,5-difluorocyclohexane-carboxamide]",0.7 nM,356 nM
"CC(C)(C)c1nc([C@@H]2CC[C@H](F)C[C@H]2C(=O)NC2(C#N)CC2)c(-c2ccc(N3CCS(=O)(=O)CC3)cc2)o1 [Example 168, (1R,2R,5S)-2-(2-(tert-butyl)-5-(4-(1,1-dioxidothiomorpho-lino)phenyl)oxazol-4-yl)-N-(1-cyanocyclopropyl)-5-fluorocyclohexane-carboxamide]",3.3 nM,≥ 10000 nM
"C[C@@H](C#N)NC(=O)[C@@H]1C[C@@H](F)CC[C@H]1c1nc(C(C)(C)C)oc1-c1ccc(N2CCS(=O)(=O)CC2)cc1 [Example 169, (1R,2R,5S)-2-(2-(tert-butyl)-5-(4-(1,1-dioxidothiomorpho-lino)phenyl)oxazol-4-yl)-N-((S)-1-cyanoethyl)-5-fluorocyclohexane-carboxamide]",2.7 nM,5660 nM
"CC(C)[C@@H](C#N)NC(=O)[C@@H]1C[C@@H](F)CC[C@H]1c1nc(C(C)(C)C)oc1-c1ccc(N2CCS(=O)(=O)CC2)cc1 [Example 170, (1R,2R,5S)-2-(2-(tert-butyl)-5-(4-(1,1-dioxidothiomorpho-lino)phenyl)oxazol-4-yl)-N-((S)-1-cyano-2-methylpropyl)-5-fluorocyclohexane-carboxamide]",12 nM,≥ 10000 nM

# Next, values leading:
IC50 [1],IC50 [2],Compound
4.6 nM,1000 nM,"N#CC1(NC(=O)[C@@H]2CCCC[C@H]2c2nc(C3CCCOC3)sc2-c2ccc(N3CCS(=O)(=O)CC3)cc2)CC1 (stereo partly drawn) [Example 146, (1R,2R)-N-(1-cyanocyclopropyl)-2-(5-(4-(1,1-dioxidothiomorpho-lino)phenyl)-2-(tetrahydro-2H-pyran-3-yl)thiazol-4-yl)cyclohexane-carboxamide]"
3.6 nM,7560 nM,"N#CC1(NC(=O)[C@@H]2CCCC[C@H]2c2nc([C@@H]3CCCCO3)sc2-c2ccc(N3CCS(=O)(=O)CC3)cc2)CC1 [Example 149, (1R,2R)-N-(1-cyanocyclopropyl)-2-(5-(4-(1,1-dioxidothiomorpho-lino)phenyl)-2-((S)-tetrahydro-2H-pyran-2-yl)thiazol-4-yl)cyclohexane-carboxamide]"
7 nM,≥ 10000 nM,"CN(CC(F)(F)F)c1nc([C@@H]2CCCC[C@H]2C(=O)NC2(C#N)CC2)c(-c2ccc(N3CCS(=O)(=O)CC3)cc2)s1 [Example 152, (1R,2R)-N-(1-cyanocyclopropyl)-2-(5-(4-(1,1-dioxidothiomorpho-lino)phenyl)-2-(methyl(2,2,2-trifluoroethyl)amino)thiazol-4-yl)cyclohexane-carboxamide]"
3.1 nM,1000 nM,"N#CC1(NC(=O)[C@@H]2CCCC[C@H]2c2nc(N3CCC(F)(F)C3)sc2-c2ccc(N3CCS(=O)(=O)CC3)cc2)CC1 [Example 153, (1R,2R)-N-(1-cyanocyclopropyl)-2-(2-(3,3-difluoropyrrolidin-1-yl)-5-(4-(1,1-dioxidothiomorpho-lino)phenyl)thiazol-4-yl)cyclohexane-carboxamide]"
4 nM,1000 nM,"N#CC1(NC(=O)[C@@H]2CCCC[C@H]2c2nc([C@@H]3CCOC3)sc2-c2ccc(N3CCS(=O)(=O)CC3)cc2)CC1 [Example 155, (1R,2R)-N-(1-cyanocyclopropyl)-2-(5-(4-(1,1-dioxidothiomorpho-lino)phenyl)-2-((R)-tetrahydrofuran-3-yl)thiazol-4-yl)cyclohexane-carboxamide]"
8.8 nM,≥ 10000 nM,"N#CC1(NC(=O)[C@@H]2CCCC[C@H]2c2nc(NCC(F)(F)F)sc2-c2ccc(N3CCS(=O)(=O)CC3)cc2)CC1 [Example 156, (1R,2R)-N-(1-cyanocyclopropyl)-2-(5-(4-(1,1-dioxidothiomorpho-lino)phenyl)-2-((2,2,2-trifluoroethyl)amino)thiazol-4-yl)cyclohexane-carboxamide]"
19.4 nM,≥ 10000 nM,"CC(C)(C)Nc1nc([C@@H]2CCCC[C@H]2C(=O)NC2(C#N)CC2)c(-c2ccc(N3CCS(=O)(=O)CC3)cc2)s1 [Example 157, (1R,2R)-2-(2-(tert-butylamino)-5-(4-(1,1-dioxidothiomorpho-lino)phenyl)thiazol-4-yl)-N-(1-cyanocyclopropyl) cyclohexanecarbox-amide]"
4.6 nM,≥ 10000 nM,"N#CC1(NC(=O)[C@@H]2CCCC[C@H]2c2nc(C3CCS(=O)(=O)CC3)sc2-c2ccc(N3CCS(=O)(=O)CC3)cc2)CC1 [Example 158, (1R,2R)-N-(1-cyanocyclopropyl)-2-(2-(1,1-dioxidotetrahydro-2H-thiopyran-4-yl)-5-(4-(1,1-dioxidothiomorpho-lino)phenyl)thiazol-4-yl)cyclohexane-carboxamide]"
1.6 nM,3330 nM,"CN=S1(=O)CCN(c2ccc(-c3sc(-c4ccc(F)cc4)nc3[C@@H]3CCCC[C@H]3C(=O)NC3(C#N)CC3)cc2)CC1 [Example 160, (1R,2R)-N-(1-cyanocyclopropyl)-2-(2-(4-fluorophenyl)-5-(4-(1-(methylimino)-1-oxidothiomorpholino)phenyl)thiazol-4-yl)cyclohexane-carboxamide]"
5.1 nM,1000 nM,"CC(C)(c1ccccc1)c1nc([C@@H]2CCCC[C@H]2C(=O)NC2(C#N)CC2)c(-c2ccc(N3CCS(=O)(=O)CC3)cc2)s1 [Example 161, (1R,2R)-N-(1-cyanocyclopropyl)-2-(5-(4-(1,1-dioxidothiomorpho-lino)phenyl)-2-(2-phenylpropan-2-yl)thiazol-4-yl)cyclohexane-carboxamide]"
2.4 nM,5120 nM,"CC(C)(C)c1nc([C@@H]2CCCC[C@H]2C(=O)NC2(C#N)CC2)c(-c2ccc(N3CCS(=O)(=O)CC3)cc2)o1 [Example 167, (1R,2R)-2-(2-(tert-butyl)-5-(4-(1,1-dioxidothiomorpho-lino)phenyl)oxazol-4-yl)-N-(1-cyanocyclopropyl) cyclohexanecarbox-amide]"
